Source: PubChem BioAssay AID248 (DTP/NCI, 2004)
Several values for one entry are separate records, joined by “and”; a condition that tells them apart may be missing. Identical values can stand only once. Toxic doses and inconclusive results are not listed. Cut-off read from the data, not from the text of the source: active = T/C of 150% or more; inactive = T/C below 125%.

System: L1210 leukemia ip in BDF1 mice, survival T/C
Assay: NCI In Vivo Anticancer Drug Screen. Data for tumor model L1210 Leukemia (intraperitoneal) in B6D2F1 (BDF1) mice
Conditions: endpoint: mean survival time, higher = longer survival
How it was run: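 Mice bearing the transplanted tumor received compound or vehicle. Survival of the treated group was divided by that of the vehicle-treated control group to give the ratio.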

[1] = dose: 100.0 mg/kg/injection, schedule: Q01DX001 (ip), vehicle: saline
[2] = dose: 200.0 mg/kg/injection, schedule: Q01DX001 (ip), vehicle: saline
[3] = dose: 400.0 mg/kg/injection, schedule: Q01DX001 (ip), vehicle: saline
[4] = dose: 100.0 mg/kg/injection, schedule: Q04DX003 (ip), vehicle: saline with Tween-80
[5] = dose: 200.0 mg/kg/injection, schedule: Q04DX003 (ip), vehicle: saline with Tween-80
[6] = dose: 100.0 mg/kg/injection, schedule: Q04DX003 (ip), vehicle: saline
[7] = dose: 200.0 mg/kg/injection, schedule: Q04DX003 (ip), vehicle: saline
[8] = dose: 100.0 mg/kg/injection, schedule: Q01DX009 (ip), vehicle: Klucel (hydroxypropylcellulose) (HPC)
[9] = dose: 100.0 mg/kg/injection, schedule: Q04DX003 (ip), vehicle: Klucel (hydroxypropylcellulose) (HPC)
[10] = dose: 200.0 mg/kg/injection, schedule: Q01DX009 (ip), vehicle: Klucel (hydroxypropylcellulose) (HPC)
[11] = dose: 200.0 mg/kg/injection, schedule: Q04DX003 (ip), vehicle: Klucel (hydroxypropylcellulose) (HPC)
[12] = dose: 400.0 mg/kg/injection, schedule: Q01DX009 (ip), vehicle: Klucel (hydroxypropylcellulose) (HPC)
[13] = dose: 400.0 mg/kg/injection, schedule: Q04DX003 (ip), vehicle: Klucel (hydroxypropylcellulose) (HPC)
[14] = dose: 100.0 mg/kg/injection, schedule: Q04DX002 (ip), vehicle: Klucel (hydroxypropylcellulose) (HPC)
[15] = dose: 200.0 mg/kg/injection, schedule: Q04DX002 (ip), vehicle: Klucel (hydroxypropylcellulose) (HPC)
[16] = dose: 400.0 mg/kg/injection, schedule: Q04DX002 (ip), vehicle: Klucel (hydroxypropylcellulose) (HPC)
[17] = dose: 400.0 mg/kg/injection, schedule: Q04DX003 (ip), vehicle: saline with Tween-80
[18] = dose: 400.0 mg/kg/injection, schedule: Q04DX003 (ip), vehicle: saline
[19] = dose: 100.0 mg/kg/injection, schedule: Q01DX009 (ip), vehicle: saline with Tween-80
[20] = dose: 200.0 mg/kg/injection, schedule: Q01DX009 (ip), vehicle: saline with Tween-80
[21] = dose: 400.0 mg/kg/injection, schedule: Q01DX009 (ip), vehicle: saline with Tween-80

Measured: T/C

O=C1C=CC(=O)N1c1ccc(F)cc1 (tested in a mixture with another compound)
inactive: dose: 100.0 mg/kg/injection, schedule: Q04DX003 (ip), vehicle: acetone 86 % of control | dose: 100.0 mg/kg/injection, schedule: Q04DX003 (ip), vehicle: other 97 % of control | dose: 200.0 mg/kg/injection, schedule: Q04DX003 (ip), vehicle: acetone 86 % of control | dose: 200.0 mg/kg/injection, schedule: Q04DX003 (ip), vehicle: other 86 % of control | dose: 400.0 mg/kg/injection, schedule: Q04DX003 (ip), vehicle: other 87 % of control and 95 % of control

Cn1c2ccccc2c(=O)c2ccccc21
inactive: [1] 117 % of control | [2] 101 % of control | [3] 101 % of control

CCC1([N+](=O)[O-])COP(=O)(OC(=O)c2ccccc2)OC1 (centres undefined)
inactive: [1] 100 % of control | [2] 108 % of control | [3] 97 % of control

COc1ccc(C(c2ccc(OC)cc2)c2cccc([N+](=O)[O-])c2)cc1
inactive: [4] 97 % of control | [5] 92 % of control

C/C(=N/N(C)C)c1cccc(C(F)(F)F)c1
inactive: [6] 98 % of control | [7] 116 % of control

CCC(O)c1cnc(OCc2ccccc2)nc1OCc1ccccc1 (centres undefined)
inactive: [8] 94 % of control | [9] 96 % of control | [10] 95 % of control | [11] 95 % of control | [12] 90 % of control | [13] 100 % of control

CCOc1ccn(C2OC(CI)C(OC3OC(COC(C)=O)C(OC(C)=O)C(OC(C)=O)C3OC(C)=O)C(OC(C)=O)C2OC(C)=O)c(=O)n1 (centres undefined)
inactive: dose: 22.5 mg/kg/injection, schedule: Q01DX001 (ip), vehicle: carboxymethylcellulose (CMC) 100 % of control | dose: 45.0 mg/kg/injection, schedule: Q01DX001 (ip), vehicle: carboxymethylcellulose (CMC) 100 % of control | dose: 90.0 mg/kg/injection, schedule: Q01DX001 (ip), vehicle: carboxymethylcellulose (CMC) 97 % of control | dose: 180.0 mg/kg/injection, schedule: Q01DX001 (ip), vehicle: carboxymethylcellulose (CMC) 103 % of control

O=C(O)c1ccc(Cl)cc1F
inactive: [14] 97 % of control | [15] 108 % of control | [16] 97 % of control

CCOc1ccc(C(=O)O)cc1OCC
inactive: [4] 110 % of control | [5] 98 % of control | [17] 96 % of control

COc1ccc(NC(=O)NC2CCCCC2)c(Cl)c1
inactive: [14] 97 % of control | [15] 102 % of control | [16] 94 % of control

CCCCCCCCC(=O)Nc1nc2c(ncn2C2OC(COC(C)=O)C(OC(C)=O)C2OC(C)=O)c(=O)[nH]1 (centres undefined)
inactive: dose: 100.0 mg/kg/injection, schedule: Q01DX005 (ip), vehicle: saline 92 % of control and 97 % of control | dose: 200.0 mg/kg/injection, schedule: Q01DX005 (ip), vehicle: saline 111 % of control and 97 % of control

COc1cc(C(=O)CCC(=O)O)cc(OC)c1OC
inactive: [8] 96 % of control | [9] 96 % of control | [10] 104 % of control | [11] 102 % of control | [12] 102 % of control | [13] 93 % of control

CCOC(=O)CSc1ccc([N+](=O)[O-])cc1Cl
inactive: [8] 102 % of control | [14] 96 % of control and 101 % of control | [10] 106 % of control | [15] 104 % of control and 106 % of control | [12] 104 % of control | [16] 95 % of control and 101 % of control

CCS(=O)(=O)/C=C/c1ccncc1
inactive: dose: 25.0 mg/kg/injection, schedule: Q04DX002 (ip), vehicle: saline 104 % of control | dose: 50.0 mg/kg/injection, schedule: Q04DX002 (ip), vehicle: saline 101 % of control | dose: 100.0 mg/kg/injection, schedule: Q04DX002 (ip), vehicle: saline 111 % of control and 113 % of control

CC1CCC2(OC1)OC1C(O)C3C4CCC5CC(OC6OC(CO)C(OC7OC(CO)C(O)C(OC8OCC(O)C(O)C8O)C7OC7OC(CO)C(O)C(OC8OC(CO)C(O)C(O)C8O)C7O)C(O)C6O)C(O)CC5(C)C4CCC3(C)C1C2C (centres undefined)
inactive: dose: 25.0 mg/kg/injection, schedule: Q01DX001 (ip), vehicle: saline with Tween-80 93 % of control

CCOC(=O)CC(=O)NCCc1cccc(OC)c1OC
inactive: [6] 93 % of control | [7] 90 % of control | [18] 93 % of control

NC(=O)c1cn[nH]c1/N=N/N1CCCC1C(=O)O (centres undefined)
inactive: dose: 100.0 mg/kg/injection, schedule: Q01DX001 (ip), vehicle: saline with Tween-80 100 % of control | [19] 111 % of control | [4] 104 % of control | dose: 200.0 mg/kg/injection, schedule: Q01DX001 (ip), vehicle: saline with Tween-80 107 % of control | [20] 97 % of control | [5] 104 % of control | dose: 400.0 mg/kg/injection, schedule: Q01DX001 (ip), vehicle: saline with Tween-80 102 % of control | [21] 94 % of control | [17] 106 % of control

c1ccc(C(=C(c2ccccc2)c2ccccc2)c2ccccc2)cc1
inactive: [8] 99 % of control | [9] 97 % of control | [10] 94 % of control | [11] 97 % of control | [12] 92 % of control | [13] 96 % of control

CS(=O)(=O)NC(=O)NCCCl
inactive: dose: 100.0 mg/kg/injection, schedule: Q01DX001 (ip), vehicle: other 95 % of control | dose: 200.0 mg/kg/injection, schedule: Q01DX001 (ip), vehicle: other 95 % of control | dose: 400.0 mg/kg/injection, schedule: Q01DX001 (ip), vehicle: other 98 % of control

OC(c1ccccc1)(c1ccccc1)c1ccc(F)cc1
inactive: [19] 102 % of control | [4] 92 % of control | [20] 101 % of control | [5] 100 % of control | [21] 89 % of control | [17] 87 % of control

COc1cc(N)ccc1/C=C/C(=O)O
inactive: [6] 97 % of control | [7] 98 % of control | [18] 92 % of control

CN(C=O)c1ccc(C(=O)N(C(=O)NC2CCCCC2)C2CCCCC2)cc1
inactive: [1] 98 % of control | [2] 93 % of control | [3] 90 % of control

NC1CCCCCCCC1
inactive: dose: 75.0 mg/kg/injection, schedule: Q01DX001 (ip), vehicle: acetone 95 % of control | dose: 150.0 mg/kg/injection, schedule: Q01DX001 (ip), vehicle: acetone 98 % of control

CCNC(C)(C)C(SS)c1ccc(Br)cc1 (centres undefined)
inactive: dose: 6.25 mg/kg/injection, schedule: Q01DX009 (ip), vehicle: water 98 % of control | dose: 12.5 mg/kg/injection, schedule: Q01DX009 (ip), vehicle: water 96 % of control | dose: 25.0 mg/kg/injection, schedule: Q01DX009 (ip), vehicle: water 94 % of control | dose: 50.0 mg/kg/injection, schedule: Q01DX009 (ip), vehicle: water 94 % of control and 91 % of control | dose: 100.0 mg/kg/injection, schedule: Q01DX009 (ip), vehicle: water 101 % of control | dose: 200.0 mg/kg/injection, schedule: Q01DX009 (ip), vehicle: water 93 % of control | dose: 400.0 mg/kg/injection, schedule: Q01DX009 (ip), vehicle: water 93 % of control
